Data published in patent US12522595B2, “Bicyclic ether O-glycoprotein-2-acetamido-2-deoxy-3-D-glucopyranosidase inhibitors” (BIOGEN MA INC., priority 2019, dated 2026).

Target: T1, Recombinant full length human OGA enzyme (Homo sapiens, UniProt O60502)
T1 construct: Recombinant full length human OGA enzyme was purchased from Origene; purchased Origene
T1 sequence (O60502 1-916): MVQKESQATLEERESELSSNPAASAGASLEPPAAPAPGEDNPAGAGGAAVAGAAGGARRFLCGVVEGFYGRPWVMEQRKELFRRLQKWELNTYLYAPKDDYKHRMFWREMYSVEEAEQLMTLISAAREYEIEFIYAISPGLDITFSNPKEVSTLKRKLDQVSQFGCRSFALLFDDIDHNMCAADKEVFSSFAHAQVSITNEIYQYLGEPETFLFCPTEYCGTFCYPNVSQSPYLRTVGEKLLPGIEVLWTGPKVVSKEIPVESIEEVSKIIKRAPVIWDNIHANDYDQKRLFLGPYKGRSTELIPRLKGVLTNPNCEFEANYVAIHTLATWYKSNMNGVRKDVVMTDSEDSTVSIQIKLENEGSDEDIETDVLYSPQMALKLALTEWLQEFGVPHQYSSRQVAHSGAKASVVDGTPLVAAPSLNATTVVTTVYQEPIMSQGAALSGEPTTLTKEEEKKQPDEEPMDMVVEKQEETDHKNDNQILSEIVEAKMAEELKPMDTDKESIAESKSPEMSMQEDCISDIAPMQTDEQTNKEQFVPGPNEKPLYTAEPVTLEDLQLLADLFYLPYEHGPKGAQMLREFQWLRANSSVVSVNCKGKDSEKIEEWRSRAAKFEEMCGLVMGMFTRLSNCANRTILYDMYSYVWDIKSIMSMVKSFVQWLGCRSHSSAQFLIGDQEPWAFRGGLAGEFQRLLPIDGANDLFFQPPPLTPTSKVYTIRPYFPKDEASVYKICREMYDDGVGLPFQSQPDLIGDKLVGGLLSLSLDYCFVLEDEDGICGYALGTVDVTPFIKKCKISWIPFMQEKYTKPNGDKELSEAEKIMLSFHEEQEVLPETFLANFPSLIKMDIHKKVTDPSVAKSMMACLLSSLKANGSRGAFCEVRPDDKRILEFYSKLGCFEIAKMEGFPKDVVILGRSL
Assay: OGA enzyme inhibition biochemical assay
Settings: 1 nM OGA, 100 μM 4-MUGlcNAc (Km), pH 6.4, 90 minutes at room temperature, 10-point dose-response from 20 μM
Experimental: N-(5-(((2S,4R)-4-([1,2,4]triazolo[4,3-a]pyrazin-3-yloxy)-2-methylpyrrolidin-1-yl)methyl)-4-fluorothiazol-2-yl)acetamide: The title compound was prepared in an analogous manner as Example 172 from 3-bromo-[1,2,4]triazolo[4,3-a]pyrazine. LCMS (ESI): [M+H] 392. ^1H NMR (600 MHz, CHLOROFORM-d) δ 10.75 (br s, 1H), 9.04 (s, 1H), 9.03 (s, 1H), 7.24 (s, 1H), 4.99-5.06 (m, 1H), 4.01 (d, J=14.49 Hz, 1H), 3.64 (d, J=14.67 Hz, 1H), 3.40 (d, J=11.55 Hz, 1H), 2.75 (dd, J=5.78, 11.46 Hz, 1H), 2.61-2.72 (m, 2H), 2.32 (s, 4H), 1.84-1.92 (m, 1H), 1.30 (d, J=5.87 Hz, 4H). ^19F NMR (565 MHz, CHLOROFORM-d) 6-115.92 (br s, 1F). OGA Enzyme Inhibition Biochemical Assay
Recombinant full length human OGA enzyme was purchased from Origene. 4-MUGlCNAc substrate was purchased from Sigma. All other reagents were purchased from Sigma or Fisher. Assay buffer consists of the McIlvaine buffer system, pH 6.4 (0.2M Na2HPO4 mixed with 0.1M citric acid) and 0.01% BSA. Reactions consist of 1 nM OGA, 100 μM 4-MUGlcNAc (Km), and compound in a final volume of 10 μl. Reactions were incubated for 90 minutes at room temperature and quenched with 40 μl of 3M glycine, pH 10 and read on a Perkin Elmer Envision plate reader (Ex: 355 nm/Em: 460 nm). Compounds were tested with a 10-point dose-response starting from 20 μM with a 4-fold dilution. Data, as presented in Table 1 below, was fit using GraphPad Prism using a 4-parameter fit with variable slope.

Row | IC50 | SMILES
1 | 9.7 nM | CC(=O)Nc1ncc(CN2C[C@H](Oc3cc4ccccc4nc3C#N)C[C@@H]2C)s1 [Example 31, N-(5-(((2S,4R)-4-((2-cyanoquinolin-3-yl)oxy)-2-methylpyrrolidin-1-yl)methyl)thiazol-2-yl)acetamide]
2 | < 1 nM | CC(=O)Nc1nc(F)c(CN2C[C@H](Oc3ccc4nn(C)nc4n3)C[C@@H]2C)s1 [Example 151, N-(4-fluoro-5-(((2S,4R)-2-methyl-4-((2-methyl-2H-[1,2,3]triazolo[4,5-b]pyridin-5-yl)oxy)pyrrolidin-1-yl)methyl)thiazol-2-yl)acetamide]
3 | < 1 nM | CC(=O)Nc1ncc(CN2C[C@H](Oc3cn4nc(C)cc4cn3)C[C@@H]2C)s1 [Example 53, N-(5-(((2S,4R)-2-methyl-4-((2-methylpyrazolo[1,5-a]pyrazin-6-yl)oxy)pyrrolidin-1-yl)methyl)thiazol-2-yl)acetamide]
4 | < 1 nM | CC(=O)Nc1nc(F)c(CN2C[C@H](Oc3cnc4nccn4c3)C[C@@H]2C)s1 [Example 164, N-(4-fluoro-5-(((2S,4R)-4-(imidazo[1,2-a]pyrimidin-6-yloxy)-2-methylpyrrolidin-1-yl)methyl)thiazol-2-yl)acetamide]
5 | < 1 nM | CC(=O)Nc1ncc(CN2C[C@H](Oc3ccc4sccc4n3)C[C@@H]2C)s1 [Example 4, N-(5-(((2S,4R)-2-methyl-4-(thieno[3,2-b]pyridin-5-yloxy)pyrrolidin-1-yl)methyl)thiazol-2-yl)acetamide]
6 | < 1 nM | CC(=O)Nc1nc(F)c(CN2C[C@H](Oc3nccc4nccn34)C[C@@H]2C)s1 [Example 98, N-(4-fluoro-5-(((2S,4R)-4-(imidazo[1,2-c]pyrimidin-5-yloxy)-2-methylpyrrolidin-1-yl)methyl)thiazol-2-yl)acetamide]
7 | < 1 nM | CC(=O)Nc1nc(F)c(CN2C[C@H](Oc3ncnc4cccc(F)c34)C[C@@H]2C)s1 [Example 124, N-(4-fluoro-5-(((2S,4R)-4-((5-fluoroquinazolin-4-yl)oxy)-2-methylpyrrolidin-1-yl)methyl)thiazol-2-yl)acetamide]
8 | < 1 nM | CC(=O)Nc1nc(F)c(CN2C[C@H](Oc3ccn4nc(C)nc4c3)C[C@@H]2C)s1 [Example 173, N-(4-fluoro-5-(((2S,4R)-2-methyl-4-((2-methyl-[1,2,4]triazolo[1,5-a]pyridin-7-yl)oxy)pyrrolidin-1-yl)methyl)thiazol-2-yl)acetamide]
9 | < 1 nM | CC(=O)Nc1ncc(CN2C[C@H](Oc3ccc4c(Cl)nccc4c3)C[C@@H]2C)s1 [Example 1, N-(5-(((2S,4R)-4-((1-chloroisoquinolin-6-yl)oxy)-2-methylpyrrolidin-1-yl)methyl)thiazol-2-yl)acetamide]
10 | < 1 nM | CC(=O)Nc1ncc(CN2C[C@H](Oc3ccc4ccc(F)cc4n3)C[C@@H]2C)s1 [Example 6, N-(5-(((2S,4R)-4-((7-fluoroquinolin-2-yl)oxy)-2-methylpyrrolidin-1-yl)methyl)thiazol-2-yl)acetamide]
11 | < 1 nM | CC(=O)Nc1nc(F)c(CN2C[C@H](Oc3cccn4ccnc34)C[C@@H]2C)s1 [Example 157, N-(4-fluoro-5-(((2S,4R)-4-(imidazo[1,2-a]pyridin-8-yloxy)-2-methylpyrrolidin-1-yl)methyl)thiazol-2-yl)acetamide]
12 | < 1 nM | CC(=O)Nc1nc(F)c(CN2C[C@H](Oc3ncc4ccn(C)c4n3)C[C@@H]2C)s1 [Example 110, N-(4-fluoro-5-(((2S,4R)-2-methyl-4-((7-methyl-7H-pyrrolo[2,3-d]pyrimidin-2-yl)oxy)pyrrolidin-1-yl)methyl)thiazol-2-yl)acetamide]
13 | 780 nM | CC(=O)Nc1ncc(CN2C[C@H](Oc3ncnc4sc(C(F)F)nc34)C[C@@H]2C)s1 [Example 36]
14 | < 1 nM | COc1cnc2c(O[C@@H]3C[C@H](C)N(Cc4sc(NC(C)=O)nc4F)C3)cnn2c1 [Example 121, N-(4-fluoro-5-(((2S,4R)-4-((6-methoxypyrazolo[1,5-a]pyrimidin-3-yl)oxy)-2-methylpyrrolidin-1-yl)methyl)thiazol-2-yl)acetamide]
15 | 2.6 nM | CC(=O)Nc1nc(F)c(CN2C[C@H](Oc3ncnc4cccnc34)C[C@@H]2C)s1 [Example 116, N-(4-fluoro-5-(((2S,4R)-2-methyl-4-(pyrido[3,2-d]pyrimidin-4-yloxy)pyrrolidin-1-yl)methyl)thiazol-2-yl)acetamide]
16 | < 1 nM | CC(=O)Nc1nc(F)c(CN2C[C@H](Oc3ccnc4ccoc34)C[C@@H]2C)s1 [Example 47, N-(4-fluoro-5-(((2S,4R)-4-(furo[3,2-b]pyridin-7-yloxy)-2-methylpyrrolidin-1-yl)methyl)thiazol-2-yl)acetamide]
17 | < 1 nM | CC(=O)Nc1nc(F)c(CN2C[C@H](Oc3ccn4cnnc4c3)C[C@@H]2C)s1 [Example 146, N-(5-(((2S,4R)-4-([1,2,4]triazolo[4,3-a]pyridin-7-yloxy)-2-methylpyrrolidin-1-yl)methyl)-4-fluorothiazol-2-yl)acetamide]
18 | < 1 nM | CC(=O)Nc1ncc(CN2C[C@H](Oc3cncc4nccn34)C[C@@H]2C)s1 [Example 99, N-(5-(((2S,4R)-4-(imidazo[1,2-a]pyrazin-5-yloxy)-2-methylpyrrolidin-1-yl)methyl)thiazol-2-yl)acetamide]
19 | < 1 nM | CC(=O)Nc1nc(F)c(CN2C[C@H](Oc3ccn4ncnc4c3)C[C@@H]2C)s1 [Example 107, N-(5-(((2S,4R)-4-([1,2,4]triazolo[1,5-a]pyridin-7-yloxy)-2-methylpyrrolidin-1-yl)methyl)-4-fluorothiazol-2-yl)acetamide]
20 | < 1 nM | CC(=O)Nc1nc(F)c(CN2C[C@H](Oc3cnc4ccnn4c3)C[C@@H]2C)s1 [Example 170, N-(4-fluoro-5-(((2S,4R)-2-methyl-4-(pyrazolo[1,5-a]pyrimidin-6-yloxy)pyrrolidin-1-yl)methyl)thiazol-2-yl)acetamide]
21 | 5.5 nM | CC(=O)Nc1ncc(CN2C[C@H](Oc3nc4ccccc4cc3C)C[C@@H]2C)s1 [Example 29, N-(5-(((2S,4R)-2-methyl-4-((3-methylquinolin-2-yl)oxy)pyrrolidin-1-yl)methyl)thiazol-2-yl)acetamide]
22 | < 1 nM | CC(=O)Nc1nc(F)c(CN2C[C@H](Oc3ccnc4c3cnn4C)C[C@@H]2C)s1 [Example 139, N-(4-fluoro-5-(((2S,4R)-2-methyl-4-((1-methyl-1H-pyrazolo[3,4-b]pyridin-4-yl)oxy)pyrrolidin-1-yl)methyl)thiazol-2-yl)acetamide]
23 | < 1 nM | CC(=O)Nc1nc(F)c(CN2C[C@H](Oc3nn4ccnc4s3)C[C@@H]2C)s1 [Example 111, N-(4-fluoro-5-(((2S,4R)-4-(imidazo[2,1-b][1,3,4]thiadiazol-2-yloxy)-2-methylpyrrolidin-1-yl)methyl)thiazol-2-yl)acetamide]
24 | < 1 nM | CC(=O)Nc1ncc(CN2C[C@H](Oc3ccc4cn(C)nc4c3)C[C@@H]2C)s1 [Example 52, N-(5-(((2S,4R)-2-methyl-4-((2-methyl-2H-indazol-6-yl)oxy)pyrrolidin-1-yl)methyl)thiazol-2-yl)acetamide]
25 | < 1 nM | CC(=O)Nc1ncc(CN2C[C@H](Oc3ccc4nn(C)cc4c3)C[C@@H]2C)s1 [Example 44, N-(5-(((2S,4R)-2-methyl-4-((2-methyl-2H-indazol-5-yl)oxy)pyrrolidin-1-yl)methyl)thiazol-2-yl)acetamide]
